Key:
S. pneumoniae D39V [1] = assay: fitness (endpoint OD595 vs no drug) (fraction); higher = more growth
How it was run: (§1)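 Plates with 384 wells were inoculated at OD595 0.01 using 30 µl of TSB, LB Lennox or CY, or 55 µl for S. pneumoniae. Incubation was at 37 °C, with OD595 measured every 30 min for 14 h. Fitness is the stationary-phase transition optical density over the robust mean of no-drug control wells, after first-reading background subtraction; it is capped at 1.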

S. aureus Newman [2] = assay: as above
How it was run: as §1

S. aureus DSM 20231 [3] = assay: as above
How it was run: as §1

S. pneumoniae D39V [4] = assay: Bliss interaction score (quartile over a dose matrix) (fitness difference); higher = more antagonism (negative = synergy)
How it was run: (§2)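 Values were capped at 1 after dividing OD595 at stationary-phase entry by the plate's robust no-drug mean. This ratio is fitness, and single-drug fitness was inferred from the combination data. The Bliss score is observed minus product-expected fitness, given as quartiles over technical, biological and donor/recipient replicates.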

B. subtilis 168 = assay: as above
How it was run: as §2

S. aureus Newman [5] = assay: as above
How it was run: as §2

S. aureus DSM 20231 [6] = assay: as above
How it was run: as §2
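Wherever Bliss interaction score (quartile over a dose matrix) is given: first quartile when negative (synergy) and third quartile when positive (antagonism).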

CCN(CC)CCOC(=O)c1ccc(N)cc1 [Procaine] + CN[C@H](CC(C)C)C(=O)N[C@H]1C(=O)N[C@@H](CC(N)=O)C(=O)N[C@H]2C(=O)N[C@H]3C(=O)N[C@H](C(=O)N[C@H](C(=O)O)c4cc(O)cc(O)c4-c4cc3ccc4O)[C@H](O)c3ccc(c(Cl)c3)Oc3cc2cc(c3O[C@@H]2O[C@H](CO)[C@@H](O)[C@H](O)[C@H]2O[C@H]2C[C@](C)(N)[C@H](O)[C@H](C)O2)Oc2ccc(cc2Cl)[C@H]1O [Vancomycin]
fitness
Conditions	partner 0.03125 µg/mL	partner 0.0625 µg/mL	partner 0.125 µg/mL	partner 0.1875 µg/mL	partner 0.375 µg/mL	partner 0.75 µg/mL
S. aureus DSM 20231 [3], first compound 85.5 µg/mL	–	–	–	0.969	0.999	0.953
S. aureus DSM 20231 [3], first compound 171 µg/mL	–	–	–	0.953	≥ 1	0.982
S. aureus DSM 20231 [3], first compound 342 µg/mL	–	–	–	0.883	0.983	≥ 1
S. aureus Newman [2], first compound 342 µg/mL	–	–	–	0.962	0.999	0.98
S. pneumoniae D39V [1], first compound 85.5 µg/mL	≥ 1	0.963	0.742	–	–	–
S. pneumoniae D39V [1], first compound 171 µg/mL	0.978	0.955	0.903	–	–	–
S. pneumoniae D39V [1], first compound 342 µg/mL	0.952	0.921	0.907	–	–	–

fitness, S. pneumoniae D39V [1], one replicate
Conditions	first compound 85.5 µg/mL	first compound 171 µg/mL	first compound 342 µg/mL
partner 0.25 µg/mL	0.0963	0.383	0.674
partner 0.5 µg/mL	0.0592	0.0925	0.148

Conditions	Bliss interaction score
B. subtilis 168	0.0237
S. aureus DSM 20231 [6]	0.0492
S. aureus Newman [5]	0.0558
S. pneumoniae D39V [4]	-0.0761

CCN(CC)CCOC(=O)c1ccc(N)cc1 [Procaine] + Cn1nnc(-c2ccc(-c3ccc(N4C[C@H](CO)OC4=O)cc3F)cn2)n1 [Tedizolid]
fitness
Conditions	first compound 85.5 µg/mL	first compound 171 µg/mL	first compound 342 µg/mL
S. aureus DSM 20231 [3], partner 0.0625 µg/mL	0.789	0.887	0.81
S. aureus DSM 20231 [3], partner 0.25 µg/mL	0.067	0.0661	0.0739
S. aureus Newman [2], partner 0.0625 µg/mL	≥ 1	0.972	0.972
S. aureus Newman [2], partner 0.125 µg/mL	0.969	0.939	0.951
S. pneumoniae D39V [1], partner 0.03125 µg/mL	0.989	0.975	0.97
S. pneumoniae D39V [1], partner 0.0625 µg/mL	0.954	0.943	0.973
S. pneumoniae D39V [1], partner 0.125 µg/mL	0.803	0.862	0.796

fitness, S. pneumoniae D39V [1], one replicate
Conditions	first compound 85.5 µg/mL	first compound 171 µg/mL	first compound 342 µg/mL
partner 0.25 µg/mL	0.67	0.744	0.695
partner 0.5 µg/mL	0.282	0.311	0.353

Conditions	Bliss interaction score
B. subtilis 168	-0.0545
S. aureus DSM 20231 [6]	-0.0772
S. aureus Newman [5]	0.0692
S. pneumoniae D39V [4]	-0.0797

Cn1nnc(-c2ccc(-c3ccc(N4C[C@H](CO)OC4=O)cc3F)cn2)n1 [Tedizolid] + CC1=C\[C@@H](O)CC(=O)Cc2nc(co2)C(=O)N2CCC=C2C(=O)O[C@H](C(C)C)[C@H](C)/C=C/C(=O)NC\C=C\1 [Virginiamycin M1]
fitness
Conditions	first compound 0.03125 µg/mL	first compound 0.0625 µg/mL	first compound 0.125 µg/mL	first compound 0.25 µg/mL	first compound 0.5 µg/mL
S. aureus DSM 20231 [3], partner 0.0625 µg/mL	–	0.839	0.579	0.194	–
S. aureus DSM 20231 [3], partner 0.125 µg/mL	–	0.889	0.542	0.212	–
S. aureus DSM 20231 [3], partner 0.25 µg/mL	–	0.888	–	0.102	–
S. aureus Newman [2], partner 0.0625 µg/mL	–	0.965	0.814	–	–
S. aureus Newman [2], partner 0.125 µg/mL	–	0.97	0.823	–	–
S. aureus Newman [2], partner 0.25 µg/mL	–	0.997	0.843	–	–
S. pneumoniae D39V [1], partner 0.5 µg/mL	0.972	0.962	0.807	–	–
S. pneumoniae D39V [1], partner 1 µg/mL	0.978	0.973	0.807	–	–
S. pneumoniae D39V [1], partner 2 µg/mL	0.955	0.948	0.824	0.785	0.607

fitness, one replicate
Conditions	first compound 0.0625 µg/mL	first compound 0.125 µg/mL	first compound 0.25 µg/mL	first compound 0.5 µg/mL
S. aureus DSM 20231 [3], partner 0.5 µg/mL	0.676	0.31	0.0481	–
S. aureus DSM 20231 [3], partner 1 µg/mL	0.681	0.327	0.0496	–
S. aureus Newman [2], partner 0.5 µg/mL	0.885	0.91	0.57	–
S. aureus Newman [2], partner 1 µg/mL	0.956	0.956	0.565	–
S. aureus Newman [2], partner 2 µg/mL	0.851	0.785	0.456	–
S. pneumoniae D39V [1], partner 0.15 µg/mL	–	0.905	0.835	0.534
S. pneumoniae D39V [1], partner 0.3 µg/mL	–	0.892	0.818	0.505
S. pneumoniae D39V [1], partner 0.5 µg/mL	–	–	0.838	0.659
S. pneumoniae D39V [1], partner 1 µg/mL	–	–	0.771	0.523

Conditions	Bliss interaction score
B. subtilis 168	-0.0674
S. aureus DSM 20231 [6]	-0.078
S. aureus Newman [5]	0.0611
S. pneumoniae D39V [4]	0.103

Cn1nnc(-c2ccc(-c3ccc(N4C[C@H](CO)OC4=O)cc3F)cn2)n1 [Tedizolid] + CN[C@H](CC(C)C)C(=O)N[C@H]1C(=O)N[C@@H](CC(N)=O)C(=O)N[C@H]2C(=O)N[C@H]3C(=O)N[C@H](C(=O)N[C@H](C(=O)O)c4cc(O)cc(O)c4-c4cc3ccc4O)[C@H](O)c3ccc(c(Cl)c3)Oc3cc2cc(c3O[C@@H]2O[C@H](CO)[C@@H](O)[C@H](O)[C@H]2O[C@H]2C[C@](C)(N)[C@H](O)[C@H](C)O2)Oc2ccc(cc2Cl)[C@H]1O [Vancomycin]
fitness
Conditions	first compound 0.03125 µg/mL	first compound 0.0625 µg/mL	first compound 0.125 µg/mL	first compound 0.25 µg/mL	first compound 0.5 µg/mL
S. aureus DSM 20231 [3], partner 0.1875 µg/mL	–	0.89	0.754	0.348	–
S. aureus DSM 20231 [3], partner 0.375 µg/mL	–	0.891	0.723	0.377	–
S. aureus DSM 20231 [3], partner 0.75 µg/mL	–	0.924	0.867	0.397	–
S. aureus Newman [2], partner 0.1875 µg/mL	–	0.977	0.87	–	–
S. aureus Newman [2], partner 0.375 µg/mL	–	0.966	0.845	–	–
S. aureus Newman [2], partner 0.75 µg/mL	–	0.939	0.824	–	–
S. pneumoniae D39V [1], partner 0.03125 µg/mL	–	–	0.809	0.73	0.482
S. pneumoniae D39V [1], partner 0.0625 µg/mL	–	–	0.819	0.718	0.473
S. pneumoniae D39V [1], partner 0.125 µg/mL	0.976	0.968	0.833	–	–

Conditions	Bliss interaction score
B. subtilis 168	0.0605
S. aureus DSM 20231 [6]	-0.0656
S. aureus Newman [5]	0.046
S. pneumoniae D39V [4]	0.107
